Test results taken from patent US5066671A, “Ellagic acid derivatives as phospholipase A2 inhibitors” (American Home Products Corporation, priority 1990, dated 1991).
Blank lines part the entries; values can stand above or below the compound they belong to.

What was measured:
[1] = Derwent Publications 78-88538A; cited from earlier work
[2] = system: paw edema induced by the exogenous administration of PLA2; assay: animal or person; format: in vivo, male CD-1 mice; details: for ED50 mg/kg p.o. at +10 min. (result in words) / % Change in Edema, 10 min: 10 min after PLA2 injection; for ED50 mg/kg p.o. at +10 min. (result in words): standard drugs; for % Change in Edema, 30 min: 30 min after PLA2 injection; for % Change in Edema, 60 min: 60 min after PLA2 injection; for ED50: Mus musculus, 10 min, read-out: ED50 mg/kg p.o. at +10 min.; for ED50 / ED50 mg/kg p.o. at +10 min.: po; for ED50 mg/kg p.o. at +10 min.: mouse, in vivo
Experimental: The ability of the compounds of the invention to inhibit paw edema induced by the exogenous administration of PLA2 is measured in the in vivo PLA2 murine paw edema assay.
The assay is carried out as follows:
Non-fasted, male CD-1 mice (8 weeks old; 31-36 grams) are placed in plastic boxes in groups of six. The right hind paw volume is measured using mercury plethysmography (zero time). Compounds are dosed orally (0.5 mL of 0.5% Tween80) 1 or 3 hours prior to PLA2 injection or intravenously (0.2 mL in 0.3% dimethylsulfoxide/saline) 3 minutes prior to PLA2 injection. A solution of purified PLA2, from the diamond back cotton mouth snake (A. piscivorus piscivorus) is prepared in saline at a concentration of 6 μg/mL. Fifty (50) μL (0.3 μg) of this PLA2 solution is injected subcutaneously into the right hind paw with a plastic 1 mL plastic syringe (27 gauge, 1" needle). Paw volume of the injected paw is measured again at 10 minutes, 30 minutes and 60 minutes after PLA2 injection. Animals are euthanized with CO2 at the completion of the study.
The paw edema is calculated by subtracting the zero time volume from the volume recorded at each time period. Mean paw edema for each treatment group is then calculated and expressed as (μL±S.E.). Drug effects are expressed as a percent change from control (vehicle) values. Statistical significance is determined by a oneway analysis of variance with LSD comparison to control (p<0.05). ED50 's are determined using repression analysis.

[3] = system: paw edema induced by the exogenous administration of PLA2; format: in vivo, male CD-1 mice
[4] = system: synthesis of the arachidonic acid cyclooxygenase oxidation product TxB2; assay: inhibition of TxB2 synthesis by rat polymorphonuclear leukocytes (cyclooxygenase activity); format: cell-based; details: rat PMN
Experimental: Rat polymorphonuclear leukocytes (PMNs) are obtained from female Wistar rats (150-200 g) which receive an injection of 6% glycogen (10 ml i.p.). Rats are sacrificed 18-24 hours post injection by CO2 asphyxiation and the elicited cells are harvested by peritoneal lavage using physiological saline (0.9% NaCl). The exudate is centrifuged at 400 xg for 10 minutes. The supernatant fluid is discarded and the cell pellet is resuspended to a concentration of 2.0×10^7 cells/mL in HBSS containing Ca^++ and Mg^++ and 10 μM L-cysteine.
To 1 mL aliquots of cell suspension, test drugs or vehicle are added, then preincubated at 37° C. for 10 minutes. A23187 (1 μM), [^3 H]-AA (3.0 μCi/mL) and unlabeled AA (1 μM) are then added and the samples are further incubated for 10 minutes. The reaction is terminated by centrifugation and pelleting cells. Supernatants are then analyzed by HPLC analysis on a 15 cm×4.6 mm ID supelcosil LC-18 (Supelco)(3M) column, using a two solvent system at a flow rate of 1.4 mL total flow as follows:
In this assay, the procedure of Example 1 is carried out as described. However, in order to determine cyclooxygenase activity, the samples are cochromatographed with authentic reference [^3 H]-TxB2.
The results are calculated as in Example 1 and presented below: […]

[5] = system: synthesis of LTB4 by rat glycogen-elicited polymorphonuclear leukocytes; assay: inhibition of LTB4 synthesis by rat glycogen-elicited polymorphonuclear leukocytes (PMN); format: cell-based; details: Leukocyte
[6] = molecular target: T1, Human Platelet PLA2 (Homo sapiens, UniProt P14555); assay: in vitro isolated phospholipase A2 assay, human platelet PLA2; format: biochemical
T1 construct: platelet acid extract PLA2; from tissue; host or cells: human platelets (semipurified acid extract)
T1 sequence (P14555 21-144): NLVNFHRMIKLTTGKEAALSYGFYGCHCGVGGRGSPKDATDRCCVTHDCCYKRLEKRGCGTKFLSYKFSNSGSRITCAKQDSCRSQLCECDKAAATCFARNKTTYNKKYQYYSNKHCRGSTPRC
Experimental: (§1) The compounds of the invention are tested in an in vitro isolated phospholipase A2 assay to determine the ability of the test compounds to inhibit the release of arachidonic acid from an arachidonic acid-containing substrate by the action of phospholipase A2 enzyme from human and non-human sources.
(§2) This assay is carried out as follows:
(§3) Into a 15 mL polypropylene tube are added the following:
(§4) ^3 H-AA E.coli substrate^1
(§5) PLA2 25 Volume yielding 12%
(§6) 100 hydrolysis in 10 min.
(§7) *pre-incubate at room temperature 30 min prior to substrate addition.
(§8) ^5 Stock 10 mM prepared in dimethyl sulfoxide. Make 1:2 dilution with
(§9) dimethyl sulfoxide and add 1 μL to 100 μL assay tube.
(§10) ^ 6 Two human PLA2 enzymes are used: (a) Semipurified human
(§11) platelet acid extract PLA2 (in 10 mM sodium acetate buffer, pH 4.5).
(§12) Remove protein precipitate by centrifugation at about 2200 rpm for 10
(§13) minutes. (b) Purified human synovial fluid.
(§14) Incubate the 100 μL reaction mixture for 10 minutes at 37° C. in a shaking water bath. The reaction is terminated by the addition of 2 mL tetrahydrofuran, followed by vortexing. NH2 columns (100 μg/mL-Analytichem International) are conditioned with 0.5 mL tetrahydrofuran followed by 0.5 mL tetrahydrofuran/water (2 mL:0.1 mL, v/v).
(§15) The sample is loaded onto the columns and slowly drawn through them. The hydrolyzed arachidonic acid retained in the columns is eluted therefrom with 1 mL tetrahydrofuran/glacial acetic acid (2%). The arachidonic acid is transferred to scintillation vials and quantitated by β-counting analysis. A "total counts" sample is prepared by pipetting 25 μL ^3 H-arachidonate E. coli directly into a scintillation vial to which is added 1 mL tetrahydrofuran. 10 mL aquasol (scintillation cocktail) is added to all samples. [formula]

[7] = system: Hageman factor; details: Ratnoff et al., J. Lab. Clin. Med. 63, 359 (1964); cited from earlier work
[8] = molecular target: T2, Human Synovial PLA2 (Homo sapiens, UniProt P14555); assay: in vitro isolated phospholipase A2 assay, human synovial fluid PLA2; format: biochemical; details: for IC50: compounds of the invention, read-out: IC50 HSF (human synovial fluid)
T2 construct: Purified human synovial fluid; from tissue; host or cells: human synovial fluid (purified)
T2 sequence (P14555 21-144): T1 sequence (P14555 21-144)
Experimental: as §1, §2, §3, §4, §5, §6, §7, §8, §9, §10, §11, §12, §13, §14, §15

[9] = system: carrageenan paw edema; assay: rat carrageenan paw edema assay; format: in vivo, male Sprague-Dawley rats; details: for ED50: Rattus norvegicus, po, 3 h, read-out: Oral ED50 (95% C.L.) mg/kg
Experimental: The compounds of the invention are tested in the rat carrageenan paw edema assay to determine their ability to inhibit the acute inflammatory response.
as §2
140-180 gm male Sprague-Dawley rats, in groups of 6 animals, are injected subcutaneously in the right paw with 0.1 ml of 1% carrageenan at zero time. Mercury plethysmographic readings (ml) of the paw are made at zero time and 3 hours later. Test compounds are suspended or dissolved in 0.5% methylcellulose and given perorally 1 hour prior to carrageenan administration.
The increase in paw volume (edema in ml) produced by the carrageenan is measured. Paw edema is calculated (3 hour volume minus zero time volume), and percent inhibition of edema is determined. Unpaired Student's t-test is used to determine statistical significance.

Compound: COc1c(O)cc2c(=O)oc3c(OC)c(O)cc4c(=O)oc1c2c34 [3,3'dimethyl ellagic acid]
antitumor activity [1]: antitumor activity

Compound: Luffarrellolide [reference compound]
ED50 mg/kg p.o. at +10 min. (result in words) [2]: Not Active | inhibition only when coinjected with enzyme [3]: 30%

Compound: O=c1oc2c(O)c(O)cc3c(=O)oc4c(O)c(O)cc1c4c23 [Example 1, 4, 4', 5, 5', 6, 6'-hexahydrodiphenic acid 2,6, 2', 6'-dilactone]
inhibition at 10 µM ([4]; Leukocyte): 4% | inhibition at 10 µM [5]: 39% | inhibition at 50 µM ([6]; at 50 μM (footnote +), read-out: % Inhibition, HP (human platelet)): 38.8% | ability to activate Hageman factor [7]: ability to activate Hageman factor | % Inhibition, HSF (human synovial fluid) ([8]; at 50 μM (footnote +), 50 µM): 89.5% | inhibition at 50 µM ([8]; at 50 μM (footnote +), read-out: % Inhibition, HSF (human synovial fluid)): 86.5% | IC50 [8]: 21 nM | % Inhibition at 50 mg/kg (peroral) ([9]; 50 mg/kg peroral, 1 hour prior to carrageenan, edema at 3 hours): 37% | % Change in Edema, 10 min ([2]; 10 mg/kg i.v.): -22% | % Change in Edema, 30 min ([2]; 10 mg/kg i.v.): -64% | % Change in Edema, 60 min ([2]; 10 mg/kg i.v.): -18% | % Change in Edema, 10 min ([2]; 100 mg/kg p.o.): -35% | % Change in Edema, 30 min ([2]; 100 mg/kg p.o.): +4% | % Change in Edema, 60 min ([2]; 100 mg/kg p.o.): -73%

Compound: COc1cccc2c1cc([N+](=O)[O-])c1c(C(=O)O)cc3c(c12)OCO3 [Aristolochic Acid, reference compound]
ED50 mg/kg p.o. at +10 min. (result in words) [2]: Not Active | inhibition only when coinjected with enzyme [3]: 30%

Compound: CC(=O)Oc1cc2c(=O)oc3c(OC(C)=O)c(OC(C)=O)cc4c(=O)oc(c1OC(C)=O)c2c34 [Example 2, Ellagic Acid Tetraacetate]
inhibition at 10 µM [5]: -31% | inhibition at 10 µM ([6]; read-out: % Inhibition at 10 μM, HP (human platelet)): -16.6% | inhibition at 10 µM ([8]; read-out: % Inhibition at 10 μM, HSF (human synovial fluid)): 90.7%

Compound: CN1CCC(=C2c3ccccc3C=Cc3ccccc32)CC1 [Cyproheptadine, reference compound]
ED50 [2]: 3.1 mg/kg

Compound: COc1ccc2cc([C@H](C)C(=O)O)ccc2c1 [Naproxen, reference compound]
ED50 mg/kg p.o. at +10 min. [2]: 18 mg/kg

Compound: C[C@@H]1C[C@H]2[C@@H]3CCC4=CC(=O)C=C[C@]4(C)[C@@]3(F)[C@@H](O)C[C@]2(C)[C@@]1(O)C(=O)CO [Dexamethasone, reference compound]
ED50 mg/kg p.o. at +10 min. [2]: 10 mg/kg

Compound: NC1=NN(c2cccc(C(F)(F)F)c2)CC1 [BW755C, reference compound]
ED50 [2]: 50 mg/kg

Compound: CC(=O)Oc1ccccc1C(=O)O [Aspirin]
ED50 [9]: 145 mg/kg

Compound: COc1ccc2c(c1)c(CC(=O)O)c(C)n2C(=O)c1ccc(Cl)cc1 [Indomethacin]
ED50 [9]: 3.7 mg/kg

% Inhibition (TxB2 synthesis) ([4]; at 10 μM): 9% | % Inhibition at 10 μM, HP (human platelet) ([6]; at 10 μM): 0% | % Inhibition at 10 μM, HSF (human synovial fluid) ([8]; at 10 μM): 95.6% | IC50 [8]: 360 nM
Compound: Ellagic Acid Diacetate [Example 3]
